Among the data in US20230041743A1, “1,8-NAPHTHYRIDIN-2-ONE COMPOUNDS FOR THE TREATMENT OF AUTOIMMUNE DISEASE” (Hoffmann-La Roche Inc., priority 2019, published 2023) are IC50 values, retold here.

This assay has as its target T1, human TLR8 (Homo sapiens, UniProt Q9NR97).
T1 construct: host or cells: HEK293 (HEK-Blue hTLR8)
T1 sequence (Q9NR97 27-1041): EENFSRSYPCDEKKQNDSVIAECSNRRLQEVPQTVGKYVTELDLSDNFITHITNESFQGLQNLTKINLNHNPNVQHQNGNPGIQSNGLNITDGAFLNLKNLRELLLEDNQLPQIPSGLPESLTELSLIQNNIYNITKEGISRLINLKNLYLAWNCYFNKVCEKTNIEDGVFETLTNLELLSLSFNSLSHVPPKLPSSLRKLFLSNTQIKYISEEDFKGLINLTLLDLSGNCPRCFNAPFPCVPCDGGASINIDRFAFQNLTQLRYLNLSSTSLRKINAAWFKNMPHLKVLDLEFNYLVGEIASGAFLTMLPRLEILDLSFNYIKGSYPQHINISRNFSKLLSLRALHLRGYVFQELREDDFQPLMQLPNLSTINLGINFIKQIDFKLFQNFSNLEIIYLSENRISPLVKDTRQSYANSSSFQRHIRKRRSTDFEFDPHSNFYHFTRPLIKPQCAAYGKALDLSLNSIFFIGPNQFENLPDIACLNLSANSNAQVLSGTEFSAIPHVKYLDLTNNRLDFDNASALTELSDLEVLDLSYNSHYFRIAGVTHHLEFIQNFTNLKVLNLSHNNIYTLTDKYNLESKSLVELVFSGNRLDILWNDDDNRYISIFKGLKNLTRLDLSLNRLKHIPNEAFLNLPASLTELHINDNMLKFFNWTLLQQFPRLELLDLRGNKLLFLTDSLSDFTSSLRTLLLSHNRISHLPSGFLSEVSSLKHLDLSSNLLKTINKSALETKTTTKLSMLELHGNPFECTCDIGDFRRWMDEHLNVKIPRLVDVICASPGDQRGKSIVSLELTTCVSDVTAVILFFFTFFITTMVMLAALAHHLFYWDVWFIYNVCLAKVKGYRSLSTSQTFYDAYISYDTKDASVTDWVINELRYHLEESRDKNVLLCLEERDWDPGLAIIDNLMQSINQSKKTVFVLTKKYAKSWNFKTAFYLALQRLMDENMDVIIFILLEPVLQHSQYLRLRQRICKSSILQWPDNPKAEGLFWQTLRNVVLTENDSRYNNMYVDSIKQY
Briefly: HEK293-Blue-hTLR-8 cells assay (SEAP reporter, R848 stimulation). It counts as cell-based. The following applies: HEK293-Blue-hTLR8 cells, R848 ligand, 20 hrs incubation; read-out: HEK/hTLR8 IC50. From the text:
HEK293-Blue-hTLR-8 Cells Assay:
A stable HEK293-Blue-hTLR-8 cell line was purchased from InvivoGen (Cat. #: hkb-htlr8, San Diego, Calif., USA). These cells were originally designed for studying the stimulation of human TLR8 by monitoring the activation of NF-κB. A SEAP (secreted embryonic alkaline phosphatase) reporter gene was placed under the control of the IFN-β minimal promoter fused to five NF-κB and AP-1-binding sites. The SEAP was induced by activating NF-κB and AP-1 via stimulating HEK-Blue hTLR8 cells with TLR8 ligands. Therefore the reporter expression was declined by TLR8 antagonist under the stimulation of a ligand, such as R848, for incubation of 20 hrs. The cell culture supernatant SEAP reporter activity was determined using QUANTI-Blue™ kit (Cat. #: rep-qb1, Invivogen, San Diego, Ca, USA) at a wavelength of 640 nm, a detection medium that turns purple or blue in the presence of alkaline phosphatase.
HEK293-Blue-hTLR8 cells were incubated at a density of 250,000-450,000 cells/mL in a volume of 170 μL in a 96-well plate in Dulbecco's Modified Eagle's medium (DMEM) containing 4.5 g/L glucose, 50 U/mL penicillin, […], […], 2 mM L-glutamine, 10% (v/v) heat-inactivated fetal bovine serum with addition of 20 μL test compound in a serial dilution in the presence of final DMSO at 1% and 10 μL of 60 uM R848 in above DMEM, perform incubation under 37° C. in a CO2 incubator for 20 hrs. Then 20 μL of the supernatant from each well was incubated with 180 μL Quanti-blue substrate solution at 37° C. for 2 hrs and the absorbance was read at 620-655 nm using a spectrophotometer. The signaling pathway that TLR8 activation leads to downstream NF-κB activation has been widely accepted, and therefore similar reporter assay was modified for evaluating TLR8 antagonist.
Take `C[C@@H]1CN(c2cc(=O)n(C)c3ncccc23)C[C@@H]2c3ccc(N4CC(C)(N)C4)cc3CN12` [Example 1, 4-[(4R,10bS)-8-(3-amino-3-methyl-azetidin-1-yl)-4-methyl-3,4,6,10b-tetrahydro-1H-pyrazino[2,1-a]isoindol-2-yl]-1-methyl-1,8-naphthyridin-2-one]: the IC50 came out at 2.9 nM.

As for `C[C@@H]1CN(c2cc(=O)n(C)c3ncccc23)C[C@@H]2c3ccc(N4CC5(CN(C)C5)C4)cc3CN12` [Example 2, 4-[(4R,10bS)-4-methyl-8-(6-methyl-2,6-diazaspiro[3.3]heptan-2-yl)-3,4,6,10b-tetrahydro-1H-pyrazino[2,1-a]isoindol-2-yl]-1-methyl-1,8-naphthyridin-2-one], the IC50 came to 1.7 nM.

Regarding `C[C@@H]1CN(c2cc(=O)n(C)c3ncccc23)C[C@@H]2c3ccc(N4CC5(CNCCO5)C4)cc3CN12` [Example 3, 4-[(4R,10bS)-4-methyl-8-(5-oxa-2,8-diazaspiro[3.5]nonan-2-yl)-3,4,6,10b-tetrahydro-1H-pyrazino[2,1-a]isoindol-2-yl]-1-methyl-1,8-naphthyridin-2-one], the IC50 was 2.6 nM.

Consider `C[C@@H]1CN(c2cc(=O)n(C)c3ncccc23)C[C@@H]2c3ccc(N4CC[C@@](C)(N)C4)cc3CN12` [Example 4, 4-[(4R,10bS)-8-[(3R)-3-amino-3-methyl-pyrrolidin-1-yl]-4-methyl-3,4,6,10b-tetrahydro-1H-pyrazino[2,1-a]isoindol-2-yl]-1-methyl-1,8-naphthyridin-2-one], for which the IC50 was found to be 2.9 nM.

With `CO[C@@H]1CN(c2ccc3c(c2)CN2[C@H](C)CN(c4cc(=O)n(C)c5ncccc45)C[C@H]32)C[C@H]1N` [Example 5, 4-[(4R,10bS)-8-[(3R,4R)-3-amino-4-methoxy-pyrrolidin-1-yl]-4-methyl-3,4,6,10b-tetrahydro-1H-pyrazino[2,1-a]isoindol-2-yl]-1-methyl-1,8-naphthyridin-2-one], the IC50 is 11.5 nM.

Turning to `C[C@@H]1CN(c2cc(=O)n(C)c3ncccc23)C[C@@H]2c3ccc(N4C[C@H]5NCCO[C@@H]5C4)cc3CN12` [Example 6, 4-[(4R,10bS)-8-[(4aR,7aR)-3,4,4a,5,7,7a-hexahydro-2H-pyrrolo[3,4-b][1,4]oxazin-6-yl]-4-methyl-3,4,6,10b-tetrahydro-1H-pyrazino[2,1-a]isoindol-2-yl]-1-methyl-1,8-naphthyridin-2-one], the IC50 stood at 4.9 nM.

Take `C[C@@H]1CN(c2cc(=O)n(C)c3ncccc23)C[C@@H]2c3ccc(N4C[C@@H](N)[C@@H](F)C4)cc3CN12` [Example 7, 4-[(4R,10bS)-8-[(3R,4S)-3-amino-4-fluoro-pyrrolidin-1-yl]-4-methyl-3,4,6,10b-tetrahydro-1H-pyrazino[2,1-a]isoindol-2-yl]-1-methyl-1,8-naphthyridin-2-one]: the IC50 came to 5.9 nM.

For `CO[C@H]1CN(c2ccc3c(c2)CN2[C@H](C)CN(c4cc(=O)n(C)c5ncccc45)C[C@H]32)CC[C@@H]1N` [Example 8, 4-[(4R,10bS)-8-[(3S,4S)-4-amino-3-methoxy-1-piperidyl]-4-methyl-3,4,6,10b-tetrahydro-1H-pyrazino[2,1-a]isoindol-2-yl]-1-methyl-1,8-naphthyridin-2-one], the IC50 was determined as 7.3 nM.

Take `CO[C@H]1CCN(c2ccc3c(c2)CN2[C@H](C)CN(c4cc(=O)n(C)c5ncccc45)C[C@H]32)C[C@@H]1N` [Example 9, 4-[(4R,10bS)-8-[(3S,4S)-3-amino-4-methoxy-1-piperidyl]-4-methyl-3,4,6,10b-tetrahydro-1H-pyrazino[2,1-a]isoindol-2-yl]-1-methyl-1,8-naphthyridin-2-one]: the IC50 amounted to 1.5 nM.

`COC[C@@H]1CNCCN1c1ccc2c(c1)CN1[C@H](C)CN(c3cc(=O)n(C)c4ncccc34)C[C@H]21` [Example 10, 4-[(4R,10bS)-8-[(2S)-2-(methoxymethyl)piperazin-1-yl]-4-methyl-3,4,6,10b-tetrahydro-1H-pyrazino[2,1-a]isoindol-2-yl]-1-methyl-1,8-naphthyridin-2-one]: the IC50 was found to be 4 nM.
